# Experimental data from ChEMBL document CHEMBL5131414, “Design, synthesis, and evaluation of phenylpiperazine-phenylacetate derivatives as rapid recovery hypnotic agents” (Bioorg Med Chem Lett, 2022).
# Assays:
# [1] = tested on: Mus musculus; experiment: Anesthetic activity in mouse assessed as concentration required to induce hypnotic effect; format: functional, organism-based
# [2] = target: GABA-A receptor; anion channel (Homo sapiens) (UniProt P14867+P47870+P18507+P28472+P48169+Q99928+Q9UN88+P34903+O00591+O14764+Q8N1C3+P18505+P78334+P47869+P31644+Q16445); experiment: Inhibition of GABAA receptor (unknown origin) at 50 uM by radioligand receptor binding assay relative to control; format: protein-complex assay
# [3] = Toxicity in mouse assessed as lethal dose; conditions: in vivo
# [4] = Therapeutic index, ratio of LD50 for toxicity in mouse to HD50 for anesthetic activity in mouse; format: organism-based; conditions: in vivo, read-out: TI
# [5] = Lipophilicity, logP of the compound; format: physicochemical; conditions: octanol/water
# [6] = tested on: Rattus norvegicus; experiment: Anesthetic activity in rat assessed as time duration of loss of righting reflex; format: functional
# [7] = tested on: Rattus norvegicus; experiment: Anesthetic activity in rat assessed as time to walk at 2 times of HD50 concentration; format: functional
# [8] = Toxicity in rat assessed as lethal dose; conditions: in vivo
# [9] = tested on: Mus musculus; experiment: Anesthetic activity in mouse assessed as onset time; format: functional
# [10] = Therapeutic index, ratio of LD50 for toxicity in rat to HD50 for anesthetic activity in rat; conditions: read-out: TI
# [11] = Therapeutic index, ratio of LD50 for toxicity in rabbit to HD50 for anesthetic activity in rabbit; conditions: read-out: TI
# [12] = tested on: Mus musculus; experiment: Anesthetic activity in mouse assessed as time to walk at 2 times of HD50 concentration; format: functional
# [13] = tested on: Oryctolagus cuniculus; experiment: Anesthetic activity in rabbit assessed as onset time; format: functional
# [14] = tested on: Oryctolagus cuniculus; experiment: Anesthetic activity in rabbit assessed as time to walk at 2 times of HD50 concentration; format: functional
# [15] = tested on: Rattus norvegicus; experiment: Anesthetic activity in rat assessed as onset time; format: functional
# [16] = tested on: Rattus norvegicus; experiment: Anesthetic activity in rat assessed as concentration required to induce hypnotic effect; format: functional, organism-based
# [17] = tested on: Oryctolagus cuniculus; experiment: Anesthetic activity in rabbit assessed as concentration required to induce hypnotic effect; format: functional, organism-based
# [18] = Toxicity in rabbit assessed as lethal dose; design: species or system Oryctolagus cuniculus; conditions: in vivo
# [19] = tested on: Mus musculus; experiment: Anesthetic activity in mouse assessed as time duration of loss of righting reflex; format: functional
# [20] = tested on: Oryctolagus cuniculus; experiment: Anesthetic activity in rabbit assessed as time duration of loss of righting reflex; format: functional
Compound,HD50 (median hypnotic dose) [1] [mg/kg],inhibition [2] [%],LD50 [3] [mg/kg],selectivity ratio [4],logP [5],other results
CCCOC(=O)Cc1ccc(OCC(=O)N2CCN(c3cccc(C(F)(F)F)c3)CC2)c(OCC)c1,33.6,49.6,176,5.2,4.5,
CCCOC(=O)Cc1ccc(OCC(=O)N(CC)CC)c(OCC)c1 [AZD-3043],17.6,70.2,,6,2.5,Time [6]: 74.2 s; Time [7]: 38.4 s; LD50 [8]: 79.8 mg/kg; Time [9]: 5.6 s; selectivity ratio [10]: 10.1; selectivity ratio [11]: 16.8; Time [12]: 46.7 s; Time [13]: 19.8 s; Time [14]: 89.6 s; Time [15]: 12.4 s; EC50 [16]: 7.9 mg/kg; EC50 [17]: 4.6 mg/kg; LD50 [18]: 77.3 mg/kg; Time [19]: 63.8 s; Time [20]: 221.6 s
CCOC(=O)Cc1ccc(OCC(=O)N2CCN(c3cccc(Cl)c3Cl)CC2)c(OCC)c1,36.5,42.1,237,6.5,4.3,
CCOc1cc(CC(=O)OC(C)C)ccc1OCC(=O)N1CCN(c2cccc(Cl)c2Cl)CC1,39.5,35.9,254,6.4,4.6,
CCOC(=O)Cc1ccc(OCC(=O)N2CCN(c3cccc(C)c3C)CC2)c(OCC)c1,32.2,38.7,209,6.5,4.1,
CCCOC(=O)Cc1ccc(OCC(=O)N2CCN(c3cccc(Cl)c3Cl)CC2)c(OCC)c1,38.6,33.3,201,5.2,4.7,
CCOc1cc(CC(=O)OC(C)C)ccc1OCC(=O)N1CCN(c2cccc(C(F)(F)F)c2)CC1,31.6,54.7,163,5.1,4.4,
CCOc1cc(CC(=O)OCC(F)(F)F)ccc1OCC(=O)N1CCN(c2cccc(C(F)(F)F)c2)CC1,31.2,38.8,198,6.3,4.7,
COc1cc(CC(=O)OCC(F)(F)F)ccc1OCC(=O)N1CCN(c2cccc(Cl)c2Cl)CC1,34.5,39.4,225,6.5,4.6,
COc1cc(CC(=O)OCC(F)(F)F)ccc1OCC(=O)N1CCN(c2ccccc2)CC1,30.8,29.9,200,6.5,3.4,
